Test results reported in patent US9924721B2 (priority 2013, dated 2018).
Marks after values point to notes of the source that are not given here.

Columns and labels:
physchem = conditions: pH 2.7
Pythium ultimum = Pythium ultimum in vitro cell test; type: cell-based; conditions: 4 days incubation
Protocol: Pythium ultimum In Vitro Cell Test
• Solvent: DMSO • Culture medium: 14.6 g anhydrous D-glucose (VWR), 7.1 g Mycological Peptone (Oxoid), 1.4 g granulated Yeast Extract (Merck), QSP liter • Inoculum: mycelial suspension
Fungicides were solubilized in DMSO and the solution used to prepare the required range of concentrations. The final concentration of DMSO used in the assay was ≤1%.
Inoculum was prepared from a pre-culture of P. ultimum grown in liquid medium by homogenization using a blender. The concentration of ground mycelium in the inoculum was estimated and adjusted to the desired optical density (OD).
Fungicides were evaluated for their ability to inhibit mycelium growth in liquid culture assay. The compounds were added in the desired concentrations to culture medium containing the mycelial suspension. After 4 days of incubation, the fungicidal efficacy of compounds was determined by spectrometric measurement of mycelium growth. Inhibition of fungal growth was determined by comparing the absorbance values in wells containing the fungicides with the absorbance in control wells without fungicides.

Phytophthora infestans [1] = experiment: microbe, parasite or virus in culture; type: cell-based; conditions: for Eff. % (inhibition of fungal growth): 8 days incubation
[2] = pH 2.7
Phytophthora infestans [3] = type: in vivo; conditions: tomatoes, spray, 100 ppm of active ingredient; evaluated 3 days after inoculation
Plasmopara viticola = experiment: Plasmopara test (grapevines)/preventive; type: in vivo; conditions: spray, 1 ppm of active ingredient, evaluated 6 days after inoculation
Protocol: Plasmopara Test (Grapevines)/Preventive
• Solvent: 24.5 parts by weight of acetone • 24.5 parts by weight of dimethylacetamide • Emulsifier: 1 part by weight of alkylaryl polyglycol ether
To produce a suitable preparation of active compound, 1 part by weight of active compound is mixed with the stated amounts of solvent and emulsifier, and the concentrate is diluted with water to the desired concentration.
To test for preventive activity, young plants are sprayed with the preparation of active compound at the stated rate of application. After the spray coating has dried on, the plants are inoculated with an aqueous spore suspension of Plasmopara viticola and then remain for 1 day in an incubation cabinet at approximately 20° C. and a relative atmospheric humidity of 100%. The plant is subsequently placed for 4 days in a greenhouse at approximately 21° C. and a relative atmospheric humidity of approximately 90%. The plants are then misted and placed for 1 day in an incubation cabinet.
The test is evaluated 6 days after the inoculation. 0% means an efficacy which corresponds to that of the untreated control, while an efficacy of 100% means that no disease is observed.

[4] = 0.25 μg/mL of active ingredient

SMILES | chromatographic logP (physchem) | Eff. % (inhibition of fungal growth) (Pythium ultimum; 20 μg/mL of active ingredient) [%] | Eff. % (inhibition of fungal growth) (Phytophthora infestans [1]; 20 μg/mL of active ingredient) [%] | Log P [2] | also measured
CS(=O)(=O)Oc1ccccc1C1CC(C(=O)CCl)=NO1 (stereo not drawn) [2-[3-(chloroacetyl)-4,5-dihydro-1,2-oxazol-5-yl]phenyl methanesulfonate] | 2.37 | – | – | – | –
C#CCOc1ccccc1C1CC(c2csc(C3CCNCC3)n2)=NO1 (stereo not drawn) [4-(4-{5-[2-(prop-2-yn-1-yloxy)phenyl]-4,5-dihydro-1,2-oxazol-3-yl}-1,3-thiazol-2-yl)piperidinium chloride] | 1.26 | – | – | – | –
CC(C)OC(=O)C(C(=O)N1CCC(c2nc(C3=NOC(c4ccccc4OS(C)(=O)=O)C3)cs2)CC1)n1nc(C(F)F)cc1C(F)F (stereo not drawn) [Example I-01] | – | 95 | 100 | 3.53^[a] | Eff. % (preventive efficacy) (Phytophthora infestans [3]): 70%
CCOC(=O)C(C(=O)N1CCC(c2nc(C3=NOC(c4ccccc4OS(C)(=O)=O)C3)cs2)CC1)n1nc(C(F)F)cc1C(F)F (stereo not drawn) [Example I-11] | – | 97 | 100 | 3.28^[a] | –
C#CCOc1ccccc1C1CC(c2csc(C3CCN(C(=O)C(C(=O)OCC)n4nc(C(F)F)cc4C(F)F)CC3)n2)=NO1 (stereo not drawn) [Example I-15, ethyl 2-[3,5-bis(difluoromethyl)-1H-pyrazol-1-yl]-3-oxo-3-[4-(4-{5-[2-(prop-2-yn-1-yloxy)phenyl]-4,5-dihydro-1,2-oxazol-3-yl}-1,3-thiazol-2-yl)piperidin-1-yl]propanoate] | 3.69 | – | – | – | –
CC(C)OC(=O)C(C(=O)N1CCC(c2nc(C3=NOC(c4c(F)cccc4OS(C)(=O)=O)C3)cs2)CC1)n1nc(C(F)F)cc1C(F)F (stereo not drawn) [Example I-17] | – | – | – | 3.49^[a] | Eff. % (inhibition of fungal growth) (Pythium ultimum; of active ingredient): 99%; Eff. % (inhibition of fungal growth) (Phytophthora infestans [1]; [4]): 100%
CCOC(=O)C(C(=O)N1CCC(c2nc(C3=NOC(c4ccccc4OS(C)(=O)=O)C3)cs2)CC1)n1nc(C)nc1C (stereo not drawn) [Example I-20] | – | 87 | 100 | 2.24^[a] | –
C#CCOc1cccc(F)c1C1CC(c2csc(C3CCN(C(=O)C(Br)C(=O)OCC)CC3)n2)=NO1 (stereo not drawn) [Example I-26] | – | 100 | 100 | 2.98^[a] | –
CCOC(=O)C(Br)C(=O)N1CCC(c2nc(C3=NOC(c4c(F)cccc4OS(C)(=O)=O)C3)cs2)CC1 (stereo not drawn) [Example I-27] | – | 100 | 100 | 2.72^[a] | –
C#CCOc1ccccc1C1CC(c2csc(C3CCN(C(=O)C(Br)C(=O)OCC)CC3)n2)=NO1 (stereo not drawn) [Example I-30, ethyl 2-bromo-3-oxo-3-[4-(4-{5-[2-(prop-2-yn-1-yloxy)phenyl]-4,5-dihydro-1,2-oxazol-3-yl}-1,3-thiazol-2-yl)piperidin-1-yl]propanoate] | 3.18 | – | – | – | –
CCOC(=O)C(Br)C(=O)N1CCC(c2nc(C3=NOC(c4ccccc4OS(C)(=O)=O)C3)cs2)CC1 (stereo not drawn) [Example I-33] | – | 99 | 100 | 2.72^[a] | –
CCOC(=O)C(Br)C(=O)N1CCC(c2nc(C3=NOC(c4c(Cl)cccc4OS(C)(=O)=O)C3)cs2)CC1 (stereo not drawn) [Example I-34] | – | 94 | 100 | 2.92^[a] | –
C#CCOc1cccc(F)c1C1CC(c2csc(C3CCN(C(=O)C(Br)C(=O)OC(C)C)CC3)n2)=NO1 (stereo not drawn) [Example I-38] | – | – | – | 3.30^[a] | Eff. % (inhibition of fungal growth) (Pythium ultimum; of active ingredient): 99%; Eff. % (preventive efficacy) (Plasmopara viticola): 93%; Eff. % (inhibition of fungal growth) (Phytophthora infestans [1]; [4]): 100%
C#CCOc1cccc(F)c1C1CC(c2csc(C3CCN(C(=O)CC(=O)OC(CC)CCCCC)CC3)n2)=NO1 (stereo not drawn) [Example I-40] | – | 93 | 100 | 4.42^[a] | –
C#CCOc1cccc(F)c1C1CC(c2csc(C3CCN(C(=O)CC(=O)OC(C)C)CC3)n2)=NO1 (stereo not drawn) [Example I-44] | – | 99 | 100 | 2.85^[a] | Eff. % (preventive efficacy) (Plasmopara viticola): 82%
COCCOC(=O)CC(=O)N1CCC(c2nc(C3=NOC(c4ccccc4OS(C)(=O)=O)C3)cs2)CC1 (stereo not drawn) [Example I-46] | – | 97 | 100 | 2.11^[a] | –

SMILES | chromatographic logP (physchem) | Eff. % (inhibition of fungal growth) (Pythium ultimum; 20 μg/mL of active ingredient) [%] | Eff. % (inhibition of fungal growth) (Phytophthora infestans [1]; 20 μg/mL of active ingredient) [%] | Log P [2] | also measured
CC(C)OC(=O)CC(=O)N1CCC(c2nc(C3=NOC(c4c(F)cccc4OS(C)(=O)=O)C3)cs2)CC1 (stereo not drawn) [Example I-47] | – | 93 | 100 | 2.53^[a] | –
CCOC(=O)CC(=O)N1CCC(c2nc(C3=NOC(c4c(Cl)cccc4OS(C)(=O)=O)C3)cs2)CC1 (stereo not drawn) [Example I-49] | – | 88 | 100 | 2.53^[a] | –
CCOC(=O)CC(=O)N1CCC(c2nc(C3=NOC(c4ccccc4OS(C)(=O)=O)C3)cs2)CC1 (stereo not drawn) [Example I-50] | – | 94 | 98 | 2.30^[a] | –
C#CCOc1cccc(Cl)c1C1CC(c2csc(C3CCN(C(=O)CC(=O)OCC)CC3)n2)=NO1 (stereo not drawn) [Example I-51] | – | 95 | 100 | 2.81^[a] | Eff. % (preventive efficacy) (Plasmopara viticola): 94%
C#CCOc1ccccc1C1CC(c2csc(C3CCN(C(=O)CC(=O)OC(C)C)CC3)n2)=NO1 (stereo not drawn) [Example I-52] | – | 86 | 87 | 2.94^[a] | –
CCCCCC(CC)OC(=O)CC(=O)N1CCC(c2nc(C3=NOC(c4ccccc4C=O)C3)cs2)CC1 (stereo not drawn) [Example I-55] | – | 70 | 100 | 4.27^[a] | –
CC(C)OC(=O)CC(=O)N1CCC(c2nc(C3=NOC(c4ccccc4C=O)C3)cs2)CC1 (stereo not drawn) [Example I-56] | – | 84 | 100 | 2.57^[a] | –
CS(=O)(=O)Oc1ccccc1C1CC(c2csc(C3CCN(C(=O)C(C(=O)OCc4ccccc4)n4nc(C(F)F)cc4C(F)F)CC3)n2)=NO1 (stereo not drawn) [Example I-60, benzyl 2-[3,5-bis(difluoromethyl)-1H-pyrazol-1-yl]-3-{4-[4-(5-{2-[(methylsulfonyl)oxy]phenyl}-4,5-dihydro-1,2-oxazol-3-yl)-1,3-thiazol-2-yl]piperidin-1-yl}-3-oxopropanoate] | 3.77 | – | – | – | inhibition at 0.25 µg/mL (Phytophthora infestans [1]; Phytophthora infestans, 192 h, read-out: Eff. % (inhibition of fungal growth)): 100%
C#CCOc1cccc(Cl)c1C1CC(c2csc(C3CCN(C(=O)C(C(=O)OC(C)(C)C)n4nc(C(F)F)cc4C(F)F)CC3)n2)=NO1 (stereo not drawn) [Example I-63] | – | – | – | 4.31^[a] | Eff. % (inhibition of fungal growth) (Pythium ultimum; of active ingredient): 90%; Eff. % (inhibition of fungal growth) (Phytophthora infestans [1]; [4]): 100%
C#CCOc1ccccc1C1CC(c2csc(C3CCN(C(=O)C(C(=O)OC(C)(C)C)n4nc(C(F)F)cc4C(F)F)CC3)n2)=NO1 (stereo not drawn) [Example I-65] | – | – | – | 4.16^[a] | Eff. % (inhibition of fungal growth) (Pythium ultimum; of active ingredient): 91%; Eff. % (inhibition of fungal growth) (Phytophthora infestans [1]; [4]): 100%
NC(=S)C1CCN(C(=O)C(C(=O)OCc2ccccc2)n2nc(C(F)F)cc2C(F)F)CC1 (stereo not drawn) [II-01, benzyl 2-[3,5-bis(difluoromethyl)-1H-pyrazol-1-yl]-3-(4-carbamothioyl-piperidin-1-yl)-3-oxopropanoate] | 2.65 | – | – | – | –
N#CC1CCN(C(=O)CC(=O)OCc2ccccc2)CC1 [IV-02, benzyl 3-(4-cyanopiperidin-1-yl)-3-oxopropanoate] | 1.85 | – | – | – | –
N#CC1CCN(C(=O)C(Br)C(=O)OCc2ccccc2)CC1 (stereo not drawn) [IV-03, benzyl 2-bromo-3-(4-cyanopiperidin-1-yl)-3-oxopropanoate] | 2.24 | – | – | – | –
N#CC1CCN(C(=O)C(C(=O)OCc2ccccc2)n2nc(C(F)F)cc2C(F)F)CC1 (stereo not drawn) [IV-04, benzyl 2-[3,5-bis(difluoromethyl)-1H-pyrazol-1-yl]-3-(4-cyanopiperidin-1-yl)-3-oxopropanoate] | 2.94 | – | – | – | –
C#CCOc1ccccc1C1CC(c2csc(C3CCN(C(=O)OC(C)(C)C)CC3)n2)=NO1 (stereo not drawn) [tert-butyl 4-(4-{5-[2-(prop-2-yn-1-yloxy)phenyl]-4,5-dihydro-1,2-oxazol-3-yl}-1,3-thiazol-2-yl)piperidine-1-carboxylate] | 4.07 | – | – | – | –
